Results from patent publication US4250176A, “Piperazine derivatives” (priority 1979, dated 1981).
Values after ≈ are worked out from the molar mass of the structure shown. Where a name gives a salt, the structure may show the parent alone. Read-outs that look alike come from different tables or passages of the source.

Tests used:
[1] = test system: Guinea pigs sensitized to ovalbumin (anaphylactic shock); experiment: Anaphylaxis in guinea pigs: protection against death after ovalbumin challenge (survival); assay type: in vivo, guinea pig; settings: estimated ED50, oral, protection against death after i.v. 0.6 mg ovalbumin; for ED50: Cavia porcellus, read-out: Anaphylaxis in guinea pigs oral effective dose in mg/kg: Survival
Experimental: The anti-anaphylactic and antihistaminic effects of the subject compounds (I) and salts thereof are studied "in vivo" in guinea pigs.
(§1) Guinea pigs, weighing between 400 and 500 g, are sensitized to ovalbumin by subplantar (s.p.) injection of 0.05 ml of antiserum in the left hind paw. The animals are then starved and orally treated, 24 hours after the sensitization, with saline (=control animals) or a particular dose of the compound under investigation.
The histamine injection (at a dose of 50 μg) was given s.p. in the right hind paw 2 hours after the oral pretreatment with the compound. The diameters of both hind paws are first measured before the histamine injection is given and again 10 minutes thereafter. The animals are challenged intravenously with 0.6 mg of ovalbumin 30 minutes after the histamine injection. All control animals develop typical primary anaphylactic shock symptoms (coughing, difficult breathing, convulsions) and 85% of these control animals die within 15 minutes after the ovalbumin injection. Protection against death is used as the criterion for possible drug effects and the estimated ED50 -value, i.e. the oral dose whereby the protection is observed in 50% of the guinea pigs, is listed in the tables below.

[2] = test system: histamine paw oedema in guinea pigs; experiment: Histamine paw oedema in guinea pigs; assay type: in vivo, guinea pig; settings: oral dose giving paw reaction below 10 units 10 minutes after 50 μg histamine s.p., 2 hours after dosing; for minimal effective dose: Cavia porcellus, read-out: Anaphylaxis in guinea pigs oral effective dose in mg/kg: Histamine oedema
Experimental: as §1, with “investigation. The histamine injection (at a dose of 50 μg) was given s.p. in the right hind paw 2 hours after the oral pretreatment with the compound.” for “investigation.”

[3] = test system: Guinea-pig ileum strips, histamine-induced contraction; experiment: Anti-histamine activity in "vitro": histamine-induced spasms of guinea-pig ileum strips; assay type: cell-based; settings: histamine 0.5 mg/liter, 5 minutes incubation, concentration giving significant inhibition (50%) of the contraction; for IC50: Cavia porcellus, 5 min
Experimental: The histamine--(0.5 mg/liter) induced spasms are recorded Kymographically with an isotonic lever giving a 5-fold magnification.

[4] = Table I-b, read-out: Histamine in "vitro" (ileum) effective conc.
[5] = Table I-a, read-out: Histamine in "vitro" (ileum) effective conc.
[6] = Table I-d, read-out: Histamine in "vitro" (ileum) effective dose

Structure (SMILES)	ED50 ([1]; Table I-a) [mg/kg]	minimal effective dose ([2]; Table I-a) [mg/kg]	IC50 [3, 5] [µg/mL]	also measured
Nc1nc2ccccc2n1CCCN1CCN(C(c2ccccc2)c2ccccc2)CC1 [I-b: M=H2N, R1=H, (CH2)3, R6=H, R7=H, 1-{3-[4-(diphenylmethyl)-1-piperazinyl]propyl}-1H-benzimidazol-2-amine]				ED50 ([1]; Table I-b): 2.5 mg/kg; minimal effective dose ([2]; Table I-b): 2.5 mg/kg; IC50 [3, 4]: ≤ 0.16 µg/mL
CC(CN1CCN(C(c2ccc(F)cc2)c2ccc(F)cc2)CC1)Cn1c(=O)[nH]c2ccccc21 (stereo not drawn) [1-[3-{4-[bis(4-fluorophenyl)methyl]-1-piperazinyl}-2-methylpropyl]-1,3-dihydro-2H-benzimidazol-2-one]	1.25	1.25	0.02 (≈ 0.042 µM)	
O=c1[nH]c2ccccc2n1CCCN1CCN(C(c2ccccc2)c2ccc([N+](=O)[O-])cc2)CC1 (stereo not drawn) [1,3-dihydro-1-[3-{4-[(4-nitrophenyl)phenylmethyl]-1-piperazinyl}propyl]-2H-benzimidazol-2-one]	< 2.5	< 2.5	0.16 (≈ 0.339 µM)	
O=c1[nH]c2ccccc2n1CCN1CCN(C(c2ccccc2)c2ccccc2)CC1 [I-a: L=H, R1=H, R2=H, (CH2)2, R6=H, R7=H, 1-{2-[4-(diphenylmethyl)-1-piperazinyl]ethyl}-1,3-dihydro-2H-benzimidazol-2-one]	0.63	1.25	0.01 (≈ 0.0242 µM)	
O=c1[nH]c2ccccc2n1CCCN1CCN(C(c2ccccc2)c2ccccc2)CC1 [I-a: L=H, R1=H, R2=H, (CH2)3, R6=H, R7=H, 1-{3-[4-(diphenylmethyl)-1-piperazinyl]propyl}-1,3-dihydro-2H-benzimidazol-2-one]	0.1	0.31	0.005 (≈ 0.0117 µM)	
Cl.Cl.O=c1n(CCCN2CCN(C(c3ccccc3)c3ccccc3)CC2)c2ccccc2n1Cc1ccccc1 [1-{3-[4-(diphenylmethyl)-1-piperazinyl]propyl}-1,3-dihydro-3-(phenylmethyl)-2H-benzimidazol-2-one dihydrochloride]	1.25	1.25	0.16	
Cn1c(=O)n(CCCN2CCN(C(c3ccccc3)c3ccccc3)CC2)c2ccccc21 [1-{3-[4-(diphenylmethyl)-1-piperazinyl]propyl}-1,3-dihydro-3-methyl-2H-benzimidazol-2-one dihydrochloride. hydrate]	1.25	2.5	0.01	
c1ccc(C(c2ccccc2)N2CCN(CCn3cnc4ccccc43)CC2)cc1 [I-b: M=H, R1=H, (CH2)2, R6=H, R7=H, 1-{2-[4-(diphenylmethyl)-1-piperazinyl]ethyl}-1H-benzimidazole]				ED50 ([1]; Table I-b): 1.25 mg/kg; minimal effective dose ([2]; Table I-b): 1.25 mg/kg; IC50 [3, 4]: 0.005 µg/mL (≈ 0.0126 µM)
O=c1[nH]c2ccccc2n1CCCN1CCN(C(c2ccc(Cl)cc2)c2ccc(Cl)cc2)CC1 [1-[3-{4-[bis(4-chlorophenyl)methyl]-1-piperazinyl}propyl]-1,3-dihydro-2H-benzimidazol-2-one]	< 2.5	< 2.5	0.16 (≈ 0.323 µM)	
c1ccc(C(c2ccccc2)N2CCN(CCCCn3cnc4ccccc43)CC2)cc1 [I-b: M=H, R1=H, (CH2)4, R6=H, R7=H, 1-[4-[4-(diphenylmethyl)-1-piperazinyl]butyl}-1H-benzimidazole]				ED50 ([1]; Table I-b): 0.16 mg/kg; minimal effective dose ([2]; Table I-b): 0.16 mg/kg; IC50 [3, 4]: 0.0025 µg/mL (≈ 0.00589 µM)
Cl.O=c1[nH]c2ccccc2n1CCN1CCC(OC(c2ccccc2)c2ccccc2)CC1 [1-{2-[4-(diphenylmethoxy)-1-piperidinyl]ethyl}-1,3-dihydro-2H-benzimidazol-2-one hydrochloride]				ED50 ([1]; Table I-d): 0.31 mg/kg; minimal effective dose ([2]; Table I-d): 0.16 mg/kg; IC50 [3, 6]: 0.0025 µg/mL
O=c1[nH]c2ccccc2n1CCCN1CCC(OC(c2ccccc2)c2ccccc2)CC1 [1-{3-[4-(diphenylmethoxy)-1-piperidinyl]-propyl}-1,3-dihydro-2H-benzimidazol-2-one]				ED50 ([1]; Table I-d): 0.63 mg/kg; minimal effective dose ([2]; Table I-d): 1.25 mg/kg; IC50 [3, 6]: 0.0025 µg/mL (≈ 0.00566 µM)
CC(C)O.Cl.Cl.Cl.Cl.Cl.Cl.Clc1cccc(C(c2ccccc2)N2CCN(CCCn3cnc4ccccc43)CC2)c1.Clc1cccc(C(c2ccccc2)N2CCN(CCCn3cnc4ccccc43)CC2)c1.O.O (stereo not drawn) [I-b: M=H, R1=H, (CH2)4, R6=3-Cl, R7=H, 1-[3-{4-[(3-chlorophenyl)phenylmethyl]-1-piperazinyl}propyl]-1H-benzimidazole trihydrochloride.hydrate.hemi-2-propanolate]				Anaphylaxis in guinea pigs oral effective dose in mg/kg: Survival ([1]; Table I-b): 1.25 mg/kg; Anaphylaxis in guinea pigs oral effective dose in mg/kg: Histamine oedema ([2]; Table I-b): 1.25 mg/kg; Histamine in "vitro" (ileum) effective conc. ([3]; Table I-b): 0.01 mg/L
O=c1[nH]c2ccccc2n1CCCN1CCN(C(c2ccccc2)c2cccc(Cl)c2)CC1 (stereo not drawn) [1-[3-{4-[α-(3-chlorophenyl-α-phenylmethyl]-1-piperazinyl}propyl]-1,3-dihydro-2H-benzimidazol-2-one]	0.63	1.25	0.01 (≈ 0.0217 µM)	
O=c1[nH]c2cc(Cl)ccc2n1CCN1CCN(C(c2ccccc2)c2ccccc2)CC1 [5-chloro-1-{2-[4-(diphenylmethyl)-1-piperazinyl]ethyl}-1,3-dihydro-2H-benzimidazol-2-one]	0.63	1.25	0.01 (≈ 0.0224 µM)	
Fc1ccc(C(c2ccccc2)N2CCN(CCCn3cnc4ccccc43)CC2)cc1 (stereo not drawn) [I-b: M=H, R1=H, (CH2)3, R6=4-F, R7=H]				ED50 ([1]; Table I-b): 0.31 mg/kg; minimal effective dose ([2]; Table I-b): 0.31 mg/kg; IC50 [3, 4]: 0.005 µg/mL (≈ 0.0117 µM)
O=c1[nH]c2ccccc2n1CCCCN1CCN(C(c2ccc(F)cc2)c2ccc(F)cc2)CC1 [1-[4-{4-[bis(4-fluorophenyl)methyl]-1-piperazinyl}-butyl]-1,3-dihydro-2H-benzimidazol-2-one dihydrochloride.hydrate.hemiethanolate]	0.16	0.31	0.01	
Cl.Cl.Cl.Clc1ccccc1C(c1ccccc1)N1CCN(CCCn2cnc3ccccc32)CC1.O.O (stereo not drawn) [I-b: M=H, R1=H, (CH2)3, R6=2-Cl, R7=H, 1-[3-{4-[(2-chlorophenyl)phenylmethyl]-1-piperazinyl}propyl]1H-benzimidazole trihydrochloride dihydrate]				ED50 ([1]; Table I-b): 1.25 mg/kg; minimal effective dose ([2]; Table I-b): 1.25 mg/kg; IC50 [3, 4]: 0.01 µg/mL
O=c1[nH]c2ccc(Cl)cc2n1CCN1CCN(C(c2ccccc2)c2ccccc2)CC1 [6-chloro-1-{2-[4-(diphenylmethyl)-1-piperazinyl]ethyl}-1,3-dihydro-2H-benzimidazol-2-one]	2.5	2.5	0.02 (≈ 0.0447 µM)	
O=c1[nH]c2ccccc2n1CCCN1CCN(C(c2ccc(Cl)cc2)c2ccccc2F)CC1 (stereo not drawn) [1-[3-{4-[α-(4-chlorophenyl)-α-(2-fluorophenyl)]-1-piperazinyl}propyl]-1,3-dihydro-2H-benzimidazol-2-one]	0.31	1.25	0.02 (≈ 0.0418 µM)	
O=c1[nH]c2ccccc2n1CCN1CCN(C(c2ccccc2)c2ccc(F)cc2)CC1 (stereo not drawn) [1-[2-{4-[α-(4-fluorophenyl)-α-phenylmethyl]-1-piperazinyl}ethyl]-1,3-dihydro-2H-benzimidazol-2-one]	0.31	0.16	0.02 (≈ 0.0465 µM)	
Cc1ccc2c(c1)[nH]c(=O)n2CCCN1CCN(C(c2ccccc2)c2ccccc2)CC1 [1-{3-[4-(diphenylmethyl)-1-piperazinyl]propyl}-1,3-dihydro-5-methyl-2H-benzimidazol-2-one]	0.08	0.16	0.01 (≈ 0.0227 µM)	
O=c1[nH]c2cc(C(F)(F)F)ccc2n1CCN1CCN(C(c2ccccc2)c2ccccc2)CC1 [1-{2-[4-(diphenylmethyl)-1-piperazinyl]ethyl}-1,3-dihydro-5-(trifluoromethyl)-2H-benzimidazol-2-one]	0.31	1.25	0.02 (≈ 0.0416 µM)	
